Source: patent publication US20090274714A1, “TUMOUR-ASSOCIATED PEPTIDES BINDING TO HUMAN LEUKOCYTE ANTIGEN (HLA) CLASS I OR II MOLECULES AND RELATED ANTI-CANCER VACCINE” (Immatics Boitechnologies GmhH, priority 2005, published 2009)
Read-outs that look alike come from different tables or passages of the source. One block for each molecule: values may come before it. Ends that are not written are not given here.

How the values were obtained:
[1] = tested on: T-cells; settings: reference: published literature; cited from earlier work
[2] = tested on: peptide loaded T2 cells and autologous DC; settings: cited from earlier work
[3] = tested on: HLA-A*02 positive cell lines HCT 116, A498, MZ 1257, MCF-7, MeI 1479 and U266 that express c-Met; settings: HLA-A2+/c-Met+ cell lines; SK-OV-3, Croft, K 562 not recognized; cited from earlier work
[4] = tested on: U 266 and A 498; settings: inhibitor to target ratio 20:1; cited from earlier work
[5] = tested on: T-cells; assay: Summary of in vitro immunogenicity (killer assay, cytokine release/staining, tetramer detection); format: cell-based, human; settings: reference: unpublished
Description: As in the latter case, several tumour cell lines endogenously expressing the antigen are also recognized.
IMA contains 10 HLA class I-binding peptides. To test the peptides regarding their in vitro immunogenicity, CD8-positive cytotoxic T-cells were generated from autologous peripheral blood mononuclear cells (PBMC) from healthy donors using single peptides contained in IMA and the activity of these cytotoxic T-cells was tested with chromium release assays and detection of T-cells with HLA tetramers in flow cytometry. Detailed data is shown for one exemplary peptide (IMA-MET-001) for both methods, the data for the other peptides is summarized in Table 8 above.
In the first step, cytotoxic T-cells are generated (primed) in vitro by repeated stimulation of peripheral blood mononuclear cells (PBMC) from healthy HLA-A*02 positive donors with the specific peptide to be tested. The priming can be done either using autologous dendritic cells generated from blood monocytes of the donor or using HLA tetramer-loaded beads.
A. Cytotoxic killing of target: In the second step, cytoxicity of such primed cytotoxic T-cells (CTLs) are tested by labelling target cells with radioactive chromium and incubating target cells with generated CTLs. The amount of radioactive chromium released into the supernatant can be correlated directly to proportion of killed target cells.
B. Detection of T-cells with HLA tetramers: Alternatively, in the second step primed CTLs with specificity for a given peptide are detected using HLA tetramers. Tetramers consist of four peptide-loaded HLA-A*02 molecules coupled to each other. These constructs allow specific labelling of the cognate T-cell receptor that recognizes the HLA-peptide-complex in the tetramer and by labelling of the tetramer with a fluorochrome followed by analysis in flow cytometry (FACS).

[6] = Physico-chemical characteristics: solubility; settings: solvent giving clear and colourless solution at 1 mg/ml
[7] = tested on: T-cells; settings: peptide not vaccinated; not present prior to vaccination; 2 RCC patients; cited from earlier work
[8] = tested on: renal cell carcinoma; settings: monotherapy, advanced RCC; cited from earlier work
[9] = tested on: CD4-positive T-cells; assay: Intracellular IFNγ staining of in vitro primed CD4-positive T-cells; format: cell-based, human
Description: First, CD4-positive T-cells were generated (primed) in vitro by repeated stimulation of peripheral blood mononuclear cells (PBMC) from healthy donors with the specific peptide to be tested in the presence of IL-12. The priming was performed using autologous dendritic cells generated from blood monocytes of the donors. In the second step, the activity of primed CD4-positive T-cells specific for the given peptide were tested by measurement of IFNγ production by intracellular IFNγ staining using a fluorescently labelled antibody. The analysis was done by flow cytometry (FACS).
Human DCs were prepared out of PBMCs from freshly drawn blood from healthy donors. PBMCs were isolated using a Ficoll density gradient (Lymphocyte Separation Medium, PAA Laboratories GmbH, Pasching, Austria). The obtained cells were washed, resuspended in X-Vivo 15 medium supplemented with 50 U/ml penicillin, 50 μg/ml streptomycin and 2 mM L-Glutamine (BioWhittaker, Verviers, Belgium) and plated at a density of 7×10^6 cells/ml. […]
Cryopreserved PBMCs were thawed, washed two times in X-Vivo 15 medium, resuspended at 10^7 cells/ml in T-cell medium and cultured overnight to reduce unspecific IFNγ production (Provenzano 2002). […] Cells were analyzed using a Cytofix/Cytoperm Plus kit (Becton Dickinson) and CD4-FITC− (Immunotools), IFNγ-PE- and CD8-PerCP clone SKI-antibodies (Becton Dickinson). After staining, cells were analyzed on a three-color FACSCalibur (Becton Dickinson).
To generate antigen-specific CD4-positive T-cells and to test the peptide on promiscuous binding, PBMCs of 4 healthy donors with different HLA-DR alleles (FIG. 7) were stimulated using peptide-pulsed autologous DCs. As a read-out system for the generation of antigen-specific CD4-positive T-cells IFNγ production was assessed by flow cytometry. T-cells were analyzed after the third and the fourth stimulation by intracellular IFNγ staining plus CD4-FITC and CD8-PerCP staining to determine the percentage of IFNγ-producing cells in specific T-cell subpopulations. […]

[10] = University of Tübingen trial, cited from earlier work
[11] = target: T1, biotinylated recombinant HLA-A*0201 molecules lacking the transmembrane domain (human, biotinylated at the carboxy terminus of the heavy chain); assay: tetrameric recombinant HLA-A*0201 multimer loaded with the peptide, flow cytometry reagent
T1 construct: tetramerised on streptavidin-PE or streptavidin-APC at a 4:1 molar ratio, or coupled to streptavidin beads; also called HLA-A*0201 tetramer; HLA tetramers

[12] = target: T1, biotinylated recombinant HLA-A*0201 …; assay: recombinant HLA-A*0201 refolded with the peptide, used on beads and as tetramer

Molecule: YVDPVITSI-OH [IMA-MET-001]
In vitro immunogenicity (assay by which shown) [1]: Killer assay, cytokine staining, tetramer
cytotoxicity of induced CTL against peptide-loaded targets [2]: antigen-specific killing
lysis of tumour cells endogenously expressing c-Met by induced CTL [3]: able to efficiently lyse malignant cells expressing both HLA-A2 and c-Met
effect of cold T2-cells pulsed with cognate peptide on lysis of tumour cells [4]: reduced the lysis of tumour cells

Solubility (Clear and colourless solution 1 mg/ml) [6]: 10% acetic acid
Molecule: VMAGDIYSV-OH [IMA-ADF-002]
In vitro immunogenicity (assay by which shown) [5]: Tetramer detection

Solubility (Clear and colourless solution 1 mg/ml) [6]: water
Molecule: ALADGVQKV-OH [IMA-APO-001]

Solubility (Clear and colourless solution 1 mg/ml) [6]: 90% acetic acid
Molecule: SVFAGVVGV-OH [IMA-GUC-001]

Solubility (Clear and colourless solution 1 mg/ml) [6]: 10% acetic acid
Molecule: SVASTITGV-OH [IMA-ADF-001]
In vitro immunogenicity (assay by which shown) [1]: Killer assay
specific T-cells after vaccination with non-related MUC peptides (epitope spreading) [7]: detected

Molecule: IFNα
response rate, initially reported [8]: 25-30%
true response rate suggested by additional trials [8]: about 10%

Molecule: SQDDIKGIQKLYGKRS-OH [IMA-MMP-001]
In vitro immunogenicity (assay by which shown) [5]: Cytokine staining
healthy donors in whom CD4-positive T-cell responses were elicited ([9]; 4 healthy donors with different HLA-DR alleles, positive if more than two fold over negative control): three out of four
CD4-positive T-cell reactivity (intracellular IFN gamma) ([9]; Donor 1, 2 and 3, after the third and the fourth stimulation): showed CD4-positive T-cells reactive
CD4-positive T-cell reactivity (intracellular IFN gamma) ([9]; Donor 4): always negative

Solubility (Clear and colourless solution 1 mg/ml) [6]: 50% acetic acid
Molecule: LLGATCMFV-OH [IMA-CCN-001]
In vitro immunogenicity (assay by which shown) [1]: Killer assay (allogeneic T cells)

Solubility (Clear and colourless solution 1 mg/ml) [6]: water
Molecule: LAALPHSCL-OH [IMA-RGS-001]
In vitro immunogenicity (assay by which shown) [5]: Tetramer detection

Molecule: STAPPVHNV-OH [IMA-MUC-001]
autoimmune effects ([10]; administered with autologous dendritic cells): no autoimmune effects
tolerability ([10]; loaded on dendritic cells): very well tolerated
In vitro immunogenicity (assay by which shown) [1]: Killer assay, cytokine release
Solubility (Clear and colourless solution 1 mg/ml) [6]: 10% acetic acid

Solubility (Clear and colourless solution 1 mg/ml) [6]: 20% acetic acid
Molecule: ALFDGDPHL-OH [IMA-K67-001]
In vitro immunogenicity (assay by which shown) [5]: Tetramer detection

binding result [11]: binds
B1: IMA-CCN-001 (peptide from Cyclin D1) (peptide)
peptide: LLGATCMFV
notes: HLA class I TUMAP; not identified by elution from tumour tissue; also called rCCN-001; CNN-001

binding result [12]: binds
B2: IMA-MET-001 (peptide from c-met proto-oncogene) (peptide)
peptide: YVDPVITSI
notes: HLA class I TUMAP; also called c-Met peptide

binding result [11]: binds
Molecule: ALFDGDPHL (HLA class I TUMAP) [IMA-K67-001 (peptide from KIAA0367)]
